How the values were obtained:
[1] = logP values of complex ingredients
From the text: (§1) Among the above ingredients, the logP values of dipropylene glycol, diethoxyethyl 5 succinate.

[2] = HLB values of surfactants; type: physicochemical
From the text: as §1

Compound | logP [1] | HLB [2]
CCOCCOC(=O)CCC(=O)OCCOCC [Diethoxyethyl succinate] | 0.25 | –
CCCCCCCCCCCCOCCOCCO [Diethylene glycol lauryl ether] | 4 | –
Polysorbate 20 | – | 17
Polysorbate 60 | – | 15
